From US8180580B2, “Method for identifying a compound that modulates SIR2 protein activity” (The Wistar Institute, priority 2007, dated 2012)

Legend:
Sir2 = Sir2 (Saccharomyces cerevisiae, UniProt P53686); assay type: biochemical
Protocol: In parallel to the in silico screen, a solution screen for Sir2 effectors was carried out. A library containing about 10,000 Diversity Oriented Synthesis (DOS) compounds and natural product sub-libraries of compounds was screened using both yHst2 and hSIRT1 proteins.

Hst2 (residues 1-294) = Hst2 (residues 1-294) (Saccharomyces cerevisiae, UniProt P53686); test: biased in vitro screening assay for relief of nicotinamide inhibition (Fluor de Lys); assay type: biochemical; conditions: […] μM nicotinamide present
Chain of Hst2 (residues 1-294) (P53686 1-294): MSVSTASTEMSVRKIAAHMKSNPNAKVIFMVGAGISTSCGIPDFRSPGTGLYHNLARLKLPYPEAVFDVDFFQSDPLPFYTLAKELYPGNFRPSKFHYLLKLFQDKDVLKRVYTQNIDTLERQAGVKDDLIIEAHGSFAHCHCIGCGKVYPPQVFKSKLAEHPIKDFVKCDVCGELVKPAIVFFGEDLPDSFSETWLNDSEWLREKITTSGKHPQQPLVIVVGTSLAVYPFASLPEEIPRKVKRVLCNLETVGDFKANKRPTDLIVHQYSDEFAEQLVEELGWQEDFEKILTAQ
Protocol: This in vitro screen was carried out as follows.

Chain of Sir2 (P53686 1-294): as above

Compound | IC50 (Sir2) [µM] | Fold Activation (Hst2 (residues 1-294))
O=C(O)CCN1Cc2ccccc2C1=O | 19.8 ± 1.1 | 
6-(4-Fluoro- phenyl)-2,3- diphenyl-1,5- dihydro- imidazo[1,2- α]imidazole |  | 2.9
CC1(C)CC(=O)C2=C(C1)NC1=C(C(=O)CC(C)(C)C1)C2c1cccc(F)c1 [9-(3-Fluoro-phenyl)-3,3,6,6-tetramethyl-2,4,6,7,9,10-hexahydro-2H,5H-acridine-1,8-dione] |  | 2.2
Zinc pyrithione [reference compound] | 1.8 ± 1.3 | 
